{"source": "patent US4175125A", "about": "“Method for treating methicillin resistant staphylococcus aureus” (Eli Lilly and Company, priority 1978, dated 1979)", "tested_on": "Staphylococcus aureus cultures", "assay": "Modified Bauer-Kirby Disc Susceptibility Test (Example 11)", "type": "cell-based", "set-up": "zone of inhibition: dose or concentration left out as unconfirmed", "settings": "for zone of inhibition: Staphylococcus aureus; for Change 37°-30°: 30 mg Disc", "procedure": "This example exemplifies the antibiotic activity of 7-[2'-(3\"-chloro-4\"-fluorophenylthio)acetamido]cephalosporanic acid, a water soluble compound, described in Example 8, against various Staphylococcus aureus cultures, in a modified Bauer-Kirby Disc Susceptibility Test (Bauer, A. W., W. M. M. Kirby, J. C. Sherris, and M. Turck, 1966, Amer. J. Clin. Pathol. 45:493-496). In this test the cultures were incubated at both 37° C. or 30° C. […] 16, 1968, the heterogeneity of methicilllin-resistant S. aureus is manifested by incubation at 30° C.", "note": "Structures can show the parent of a compound that is named as a salt. Where two headings read alike, the source gives them in different places.", "data": [{"smiles": "CC(=O)OCC1=C(C(=O)O)N2C(=O)C(NC(=O)CSc3ccc(F)c(Cl)c3)C2SC1", "note": "(stereo not drawn) [Example 8, 7-(3'-chloro-4-fluorophenylthioacetamido)cephalosporanic acid, sodium salt]", "values": [{"measurement": "zone of inhibition", "setting": "culture 3055 (penicillin sensitive), 30°, read-out: disc susceptibility (zone) at 30°", "result": "> 35", "unit": "mm"}, {"measurement": "zone of inhibition", "setting": "culture 3055 (penicillin sensitive), 37°, read-out: disc susceptibility (zone) at 37°", "result": "> 35", "unit": "mm"}, {"measurement": "zone of inhibition", "setting": "culture 3074 (methicillin sensitive, penicillinase producing), 30°, read-out: disc susceptibility (zone) at 30°", "result": 36, "unit": "mm"}, {"measurement": "zone of inhibition", "setting": "culture 3074 (methicillin sensitive, penicillinase producing), 37°, read-out: disc susceptibility (zone) at 37°", "result": 36, "unit": "mm"}, {"measurement": "zone of inhibition", "setting": "culture 3125 (methicillin resistant), 30°, read-out: disc susceptibility (zone) at 30°", "result": 36, "unit": "mm"}, {"measurement": "zone of inhibition", "setting": "culture 3125 (methicillin resistant), 37°, read-out: disc susceptibility (zone) at 37°", "result": 33.8, "unit": "mm"}, {"measurement": "zone of inhibition", "setting": "culture 3130 (methicillin resistant), 30°, read-out: disc susceptibility (zone) at 30°", "result": 31, "unit": "mm"}, {"measurement": "zone of inhibition", "setting": "culture 3130 (methicillin resistant), 37°, read-out: disc susceptibility (zone) at 37°", "result": 33.2, "unit": "mm"}, {"measurement": "zone of inhibition", "setting": "culture 3131 (methicillin resistant), 30°, read-out: disc susceptibility (zone) at 30°", "result": 29, "unit": "mm"}, {"measurement": "zone of inhibition", "setting": "culture 3131 (methicillin resistant), 37°, read-out: disc susceptibility (zone) at 37°", "result": 26.6, "unit": "mm"}, {"measurement": "zone of inhibition", "setting": "culture 3132 (methicillin resistant), 30°, read-out: disc susceptibility (zone) at 30°", "result": 28, "unit": "mm"}, {"measurement": "zone of inhibition", "setting": "culture 3132 (methicillin resistant), 37°, read-out: disc susceptibility (zone) at 37°", "result": 29.4, "unit": "mm"}, {"measurement": "zone of inhibition", "setting": "culture 3133 (methicillin resistant), 30°, read-out: disc susceptibility (zone) at 30°", "result": 24.8, "unit": "mm"}, {"measurement": "zone of inhibition", "setting": "culture 3133 (methicillin resistant), 37°, read-out: disc susceptibility (zone) at 37°", "result": 27.6, "unit": "mm"}, {"measurement": "zone of inhibition", "setting": "culture 3134 (methicillin resistant), 30°, read-out: disc susceptibility (zone) at 30°", "result": 27.8, "unit": "mm"}, {"measurement": "zone of inhibition", "setting": "culture 3134 (methicillin resistant), 37°, read-out: disc susceptibility (zone) at 37°", "result": 28, "unit": "mm"}, {"measurement": "zone of inhibition", "setting": "culture 3135 (methicillin resistant), 30°, read-out: disc susceptibility (zone) at 30°", "result": 26.2, "unit": "mm"}, {"measurement": "zone of inhibition", "setting": "culture 3135 (methicillin resistant), 37°, read-out: disc susceptibility (zone) at 37°", "result": 28.2, "unit": "mm"}, {"measurement": "zone of inhibition", "setting": "culture 3136 (methicillin resistant), 30°, read-out: disc susceptibility (zone) at 30°", "result": 31, "unit": "mm"}, {"measurement": "zone of inhibition", "setting": "culture 3136 (methicillin resistant), 37°, read-out: disc susceptibility (zone) at 37°", "result": 35, "unit": "mm"}, {"measurement": "zone of inhibition", "setting": "culture 3137 (methicillin resistant), 30°, read-out: disc susceptibility (zone) at 30°", "result": 22.1, "unit": "mm"}, {"measurement": "zone of inhibition", "setting": "culture 3137 (methicillin resistant), 37°, read-out: disc susceptibility (zone) at 37°", "result": 24.4, "unit": "mm"}, {"measurement": "zone of inhibition", "setting": "culture 3138 (methicillin resistant), 30°, read-out: disc susceptibility (zone) at 30°", "result": 25.2, "unit": "mm"}, {"measurement": "zone of inhibition", "setting": "culture 3138 (methicillin resistant), 37°, read-out: disc susceptibility (zone) at 37°", "result": 25.6, "unit": "mm"}, {"measurement": "zone of inhibition", "setting": "culture 3139 (methicillin resistant), 30°, read-out: disc susceptibility (zone) at 30°", "result": 31.6, "unit": "mm"}, {"measurement": "zone of inhibition", "setting": "culture 3139 (methicillin resistant), 37°, read-out: disc susceptibility (zone) at 37°", "result": 34, "unit": "mm"}, {"measurement": "zone of inhibition", "setting": "culture 3140 (methicillin resistant), 30°, read-out: disc susceptibility (zone) at 30°", "result": 26.4, "unit": "mm"}, {"measurement": "zone of inhibition", "setting": "culture 3140 (methicillin resistant), 37°, read-out: disc susceptibility (zone) at 37°", "result": 28.4, "unit": "mm"}, {"measurement": "zone of inhibition", "setting": "culture H232 (methicillin sensitive, penicillinase producing), 30°, read-out: disc susceptibility (zone) at 30°", "result": 34.3, "unit": "mm"}, {"measurement": "zone of inhibition", "setting": "culture H232 (methicillin sensitive, penicillinase producing), 37°, read-out: disc susceptibility (zone) at 37°", "result": 33.4, "unit": "mm"}, {"measurement": "Change 37°-30°", "setting": "culture 3074", "result": 0, "unit": "mm"}, {"measurement": "Change 37°-30°", "setting": "culture 3125", "result": "+2.2 mm"}, {"measurement": "Change 37°-30°", "setting": "culture 3130", "result": -2.2, "unit": "mm"}, {"measurement": "Change 37°-30°", "setting": "culture 3131", "result": "+2.4 mm"}, {"measurement": "Change 37°-30°", "setting": "culture 3132", "result": -1.4, "unit": "mm"}, {"measurement": "Change 37°-30°", "setting": "culture 3133", "result": -2.8, "unit": "mm"}, {"measurement": "Change 37°-30°", "setting": "culture 3134", "result": -0.2, "unit": "mm"}, {"measurement": "Change 37°-30°", "setting": "culture 3135", "result": -2.0, "unit": "mm"}, {"measurement": "Change 37°-30°", "setting": "culture 3136", "result": -4.0, "unit": "mm"}, {"measurement": "Change 37°-30°", "setting": "culture 3137", "result": -2.3, "unit": "mm"}, {"measurement": "Change 37°-30°", "setting": "culture 3138", "result": -0.4, "unit": "mm"}, {"measurement": "Change 37°-30°", "setting": "culture 3139", "result": -2.4, "unit": "mm"}, {"measurement": "Change 37°-30°", "setting": "culture 3140", "result": -2.0, "unit": "mm"}, {"measurement": "Change 37°-30°", "setting": "culture H232", "result": "+0.9 mm"}, {"measurement": "effectiveness vs cephalothin in disc susceptibility test", "setting": "incubation at 37° C. or 30° C.", "result": "more effective than cephalothin"}]}]}
